In article PMC7682989, “Large domain movements through the lipid bilayer mediate substrate release and inhibition of glutamate transporters” (eLife, 2020):
Changes are numbered by the printed parent chain. One block for each molecule: values may come before it.

Legend:
GltPh [1] = biological target: T1, GltPh (Pyrococcus horikoshii, UniProt O59010, D37H/K40H/K125H/K132H/K223H/K264H/E368H); assay: cryo-EM structure; format: binding; conditions: outward-facing state, MSP1E3 nanodiscs; 200 mM NaCl, 10 mM DL-TBOA, pH 7.4
T1 construct: gene PH1295; C-terminal His8 cut by thrombin; E. coli DH10B; homotrimer; DDM (ITC) or MSP1E3 nanodiscs (cryo-EM)
T1 sequence (O59010 1-425 D37H/K40H/K125H/K132H/K223H/K264H/E368H limits assumed): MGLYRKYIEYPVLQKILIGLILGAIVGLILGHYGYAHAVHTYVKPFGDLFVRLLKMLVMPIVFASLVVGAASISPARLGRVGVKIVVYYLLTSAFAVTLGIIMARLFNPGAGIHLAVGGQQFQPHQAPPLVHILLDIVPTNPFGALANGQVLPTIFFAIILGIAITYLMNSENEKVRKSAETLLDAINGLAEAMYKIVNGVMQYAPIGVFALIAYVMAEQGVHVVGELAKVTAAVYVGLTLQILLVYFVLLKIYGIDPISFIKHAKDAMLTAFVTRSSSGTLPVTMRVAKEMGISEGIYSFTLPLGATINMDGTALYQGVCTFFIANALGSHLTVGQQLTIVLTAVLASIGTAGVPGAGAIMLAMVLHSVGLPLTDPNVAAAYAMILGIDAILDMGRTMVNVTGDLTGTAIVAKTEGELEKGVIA

GltPh [2] = biological target: T2, GltPh (Pyrococcus horikoshii, UniProt O59010, D37H/K40H/K55C/K125H/K132H/K223H/K264H/C321A/A364C/E368H); assay: cryo-EM structure; format: binding; conditions: inward-facing, Hg2+-crosslinked K55C/A364C; MSP1E3 nanodiscs; 200 mM NaCl, 1 mM L-asp, pH 7.4
T2 construct: gene PH1295; C-terminal His8 cut by thrombin; E. coli DH10B; homotrimer; DDM (ITC) or MSP1E3 nanodiscs (cryo-EM)
T2 sequence (O59010 1-425 D37H/K40H/K55C/K125H/K132H/K223H/K264H/C321A/A364C/E368H limits assumed): T1 sequence (O59010 1-425 D37H/K40H/K125H/K132H/K223H/K264H/E368H limits assumed) with K55C, C321A, A364C

GltPh [3] = biological target: T2, GltPh; assay: isothermal titration calorimetry; format: binding; conditions: inward-facing, Hg2+-crosslinked K55C/A364C; DDM; 200 mM NaCl, pH 7.4, 15 °C; n 0.8; structure in nanodiscs 3.71 Å
[4] = biological target: GltPh, the fully functional seven-histidine mutant referred to as wildtype (WT) (UniProt O59010); assay: cryo-EM structure; single-particle cryo-EM of GltPh reconstituted into MSP1E3 nanodiscs (E. coli polar lipid extract : egg phosphatidylcholine 3:1); 20 mM Hepes/Tris pH 7.4, 200 mM NaCl with 1 mM L-asp, 10 mM DL-TBOA, 10 mM TFB-TBOA or NaCl only; 3D classes without symmetry, then C3 refinement
[5] = biological target: GltPh-K55C/C321A/A364C, cross-linked with HgCl2 (GltPh^IFS) (UniProt O59010); assay: as above

Molecule: NC(C(=O)O)C(OCc1ccccc1)C(=O)O (racemic) [DL-TBOA, DL-threo-β-benzyloxyaspartate]
- cryo-EM structure (GltPh [1]): wild type outward-facing GltPh in complex with TBOA (GltPh^OFS-TBOA)

Molecule: N[C@@H](CC(=O)O)C(=O)O [L-asp]
- cryo-EM structure (GltPh [2]): bound to L-asp (GltPh^IFS-Asp)

Molecule: N[C@H](C(=O)O)[C@H](OCc1cccc(NC(=O)c2ccc(C(F)(F)F)cc2)c1)C(=O)O [TFB-TBOA, (2S,3S)−3-[3-[4-(trifluoromethyl)benzoylamino]benzyloxy]aspartate]
- Kd (GltPh [3]): 3.8 µM

- stoichiometry N [4]: 3
Molecule: GltPh, the fully functional seven-histidine mutant referred to as wildtype (WT) (from UniProt O59010 1-417) (natural protein)

- stoichiometry N [5]: 3
Molecule: GltPh-K55C/C321A/A364C, cross-linked with HgCl2 (GltPh^IFS) (from UniProt O59010 1-425) (natural protein)
